These results are taken from patent US20220135571A1, “THERAPEUTIC EGFR INHIBITORS” (Hoffmann-La Roche Inc., priority 2019, published 2022).

The target in assay [1] is T1, EGFR TMLR (T790M/L858R), H1975 cell line (Homo sapiens, UniProt P00533, L858R/T790M).
T1 construct: H1975 cell line (CRL-5908; Lot BA70803) was obtained from American Type Culture Collection; host or cells: H1975
In words: HTRF Phospho EGFR TMLR Assay (Cellular). It counts as cell-based. The conditions noted are these: H1975 cells, 16 hours compound incubation. How it is done:
HTRF Phospho EGFR TMLR Assay (Cellular)
H1975 cell line (CRL-5908; Lot BA70803) was obtained from American Type Culture Collection (Manassas, Va., USA). Cells were maintained at 37° C., 5% CO2 in complete Media RPMI 1640 without phenol red containing 0.3 mg/ml glutamine, 100 IU/ml penicillin, and […] streptomycin (Gibco, 15140-122) supplemented with 10% fetal bovine serum (FBS, Gibco, 10091-148). Compounds were diluted into starving medium RPMI 1640 Media (Gibco, 11835-030) without phenol red containing 0.3 mg/ml glutamine, 100 IU/ml penicillin, and […] streptomycin (Gibco).
Cells were cultured for 24 h in a 384-well plate (Greiner Bio-One, Nr. 784-080; 5000 cells/well) using 8 μl of complete medium/well. Then 4 µl/well of the 3× compound solution, containing a factor 3 dilution series of the compound or DMSO in starving medium, were added to the cells (final DMSO 0.33%). After 16 hours at 37° C., 5% CO2, 95% rel. humidity cells were lysed by adding to the compound mix 4 µl/well of the supplemented lysis buffer (Cis-bio, Phospho-EGFR HTRF kit, 64EG1PEH), followed by incubation for 30 min at room temperature with shaking (400 rpm). Then 4 μl of a mixture of anti-Phospho-EGFR Cryptate and of anti-Phospho-EGFR-d2 antibody solutions prepared in the detection buffer was added. The plates were then incubated for 4 h at room temperature before reading the fluorescence emission at 620 and 665 nm using an Envision reader (Perkin Elmer).
(Time-resolved FRET reads energy transfer from a long-lived donor to a nearby acceptor.)

Assay [2] deals with T2, EGFR TMLRCS (T790M/L858R/C797S), BaF3-TMLRCS cell line (Homo sapiens, UniProt P00533, C797S/L858R/T790M).
T2 construct: host or cells: BaF3
In words: HTRF Phospho EGFR TMLRCS Assay (Cellular). Particulars: BaF3-TMLRCS cells, 4 hours compound incubation. It counts as cell-based. The protocol:
HTRF Phospho EGFR TMLRCS Assay (Cellular)
BaF3-TMLRCS cell line were obtained from Crownbio (San Diego, Calif., USA). Cells were maintained at 37° C., 5% CO2 in RPMI ATCC (Gibco 31870)+2 mM Glutamine+0.5 μg/ml Puromycin supplemented with 10% fetal bovine serum (FBS) (Gibco).
Cells are transferred as above to Greiner Bio-One, Nr. 784-08 micro-titerplate at 20000 cells/well in 12.5 μl of growth medium/well after the plates had been pre-filled with 12.5 nl of DMSO solutions of the to be tested compounds (in dose response) or DMSO only. After spinning the plates at 300×g for 30 seconds the cells were incubated for 4 hours at 37 C, 5% CO2, 95% humidity. The cells were lysed by adding to the compound mix 4 µl/well of the supplemented lysis buffer (Cis-bio, Phospho-EGFR HTRF kit, 64EG1PEH), followed by incubation for 30 min at room temperature with shaking (400 rpm). The plates were then frozen and stored overnight at −80 C. On the next day and after thawing the plates, 4 μl of a mixture of anti-Phospho-EGFR Cryptate and of anti-Phospho-EGFR-d2 antibody solutions prepared in the supplied detection buffer was added to each well. The lidded plates were then incubated for 4 h at room temperature before reading the fluorescence emission at 616 and 665 nm using an Envision reader (Perkin Elmer). Data was analyzed in similar fashion as above using the normalized ratio of the 665 to 616 signals multiplied by 10000.

SMILES strings stand for the structures. pIC50: −log10 of the molar value. Structures can show the parent of a compound that is named as a salt.

T2 sequence (P00533 25-1210 T790M/C797S/L858R): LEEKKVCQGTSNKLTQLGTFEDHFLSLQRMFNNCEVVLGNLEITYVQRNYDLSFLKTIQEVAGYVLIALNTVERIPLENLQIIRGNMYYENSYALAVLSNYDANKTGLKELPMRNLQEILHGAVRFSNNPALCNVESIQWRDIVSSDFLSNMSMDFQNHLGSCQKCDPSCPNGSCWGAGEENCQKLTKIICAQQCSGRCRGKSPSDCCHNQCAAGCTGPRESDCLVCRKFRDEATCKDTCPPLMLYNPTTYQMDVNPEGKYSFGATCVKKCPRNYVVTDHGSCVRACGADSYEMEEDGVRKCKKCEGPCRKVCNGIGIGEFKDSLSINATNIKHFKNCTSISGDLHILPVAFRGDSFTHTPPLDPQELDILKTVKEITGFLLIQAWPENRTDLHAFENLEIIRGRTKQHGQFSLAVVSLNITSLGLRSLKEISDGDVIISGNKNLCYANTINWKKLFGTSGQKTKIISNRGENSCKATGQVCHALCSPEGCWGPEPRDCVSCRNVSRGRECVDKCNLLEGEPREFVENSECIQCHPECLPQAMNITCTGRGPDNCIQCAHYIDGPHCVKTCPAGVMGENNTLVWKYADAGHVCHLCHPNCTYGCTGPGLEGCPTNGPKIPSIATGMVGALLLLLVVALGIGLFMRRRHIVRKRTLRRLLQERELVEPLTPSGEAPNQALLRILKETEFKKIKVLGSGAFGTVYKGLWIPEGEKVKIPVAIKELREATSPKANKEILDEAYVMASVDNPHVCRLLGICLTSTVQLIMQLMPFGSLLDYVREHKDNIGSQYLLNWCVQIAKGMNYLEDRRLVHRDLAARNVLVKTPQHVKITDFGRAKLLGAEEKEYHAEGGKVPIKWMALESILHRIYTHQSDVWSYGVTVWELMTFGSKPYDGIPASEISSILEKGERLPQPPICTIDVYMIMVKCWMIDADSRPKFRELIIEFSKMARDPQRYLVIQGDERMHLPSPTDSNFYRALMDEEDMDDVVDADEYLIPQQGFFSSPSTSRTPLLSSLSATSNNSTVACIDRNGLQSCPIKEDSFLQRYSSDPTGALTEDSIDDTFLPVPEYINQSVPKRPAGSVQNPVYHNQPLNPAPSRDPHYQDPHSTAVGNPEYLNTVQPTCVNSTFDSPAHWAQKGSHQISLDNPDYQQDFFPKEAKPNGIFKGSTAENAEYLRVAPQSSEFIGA
T1 sequence (P00533 25-1210 T790M/L858R): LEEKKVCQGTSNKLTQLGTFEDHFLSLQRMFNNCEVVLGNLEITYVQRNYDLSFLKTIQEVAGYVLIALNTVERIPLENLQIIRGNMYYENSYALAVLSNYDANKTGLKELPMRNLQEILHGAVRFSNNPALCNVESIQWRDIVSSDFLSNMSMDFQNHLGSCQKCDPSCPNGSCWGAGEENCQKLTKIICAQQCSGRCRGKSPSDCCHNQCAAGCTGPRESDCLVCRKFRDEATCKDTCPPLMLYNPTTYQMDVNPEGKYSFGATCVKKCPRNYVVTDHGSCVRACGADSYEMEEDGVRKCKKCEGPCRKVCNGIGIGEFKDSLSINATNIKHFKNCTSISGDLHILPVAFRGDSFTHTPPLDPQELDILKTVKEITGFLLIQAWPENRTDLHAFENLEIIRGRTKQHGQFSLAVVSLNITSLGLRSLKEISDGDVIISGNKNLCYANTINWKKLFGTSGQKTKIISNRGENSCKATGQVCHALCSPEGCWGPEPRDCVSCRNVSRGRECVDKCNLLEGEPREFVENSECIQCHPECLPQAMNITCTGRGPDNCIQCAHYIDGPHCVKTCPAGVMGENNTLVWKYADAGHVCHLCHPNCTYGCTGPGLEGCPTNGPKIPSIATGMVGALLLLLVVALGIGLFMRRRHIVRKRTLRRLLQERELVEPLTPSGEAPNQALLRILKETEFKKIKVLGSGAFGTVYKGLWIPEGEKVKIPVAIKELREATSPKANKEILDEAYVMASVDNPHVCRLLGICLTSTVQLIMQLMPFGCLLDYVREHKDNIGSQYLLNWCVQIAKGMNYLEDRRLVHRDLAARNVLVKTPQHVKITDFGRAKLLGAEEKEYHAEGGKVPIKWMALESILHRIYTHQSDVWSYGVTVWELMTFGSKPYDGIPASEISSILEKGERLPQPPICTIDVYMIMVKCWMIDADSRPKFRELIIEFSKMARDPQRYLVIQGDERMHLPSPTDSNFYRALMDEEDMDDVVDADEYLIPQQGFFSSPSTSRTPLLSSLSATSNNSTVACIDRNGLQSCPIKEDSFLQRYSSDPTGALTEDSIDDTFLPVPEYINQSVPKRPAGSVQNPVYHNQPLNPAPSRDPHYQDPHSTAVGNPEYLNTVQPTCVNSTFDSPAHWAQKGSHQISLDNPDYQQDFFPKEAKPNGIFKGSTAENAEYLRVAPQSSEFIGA

One may read the pIC50 as −log10 of the IC50, conventionally taken in molar units. Read a low pIC50 as a high IC50. Turning to `COc1c(-c2ccc3c(c2)CCC(=O)N3C)cc(Cl)c2cn(C(C(=O)Nc3nccs3)c3ncn4c3C[C@@H](F)C4)nc12` (mixture of isomers) [Example 20, 2-[4-Chloro-7-methoxy-6-(1-methyl-2-oxo-3,4-dihydroquinolin-6-yl)indazol-2-yl]-2-[rac-(6R)-6-fluoro-6,7-dihydro-5H-pyrrolo[1,2-c]imidazol-1-yl]-N-(1,3-thiazol-2-yl)acetamide], the pIC50 in assay [1] was 9.00. The molecule `CCN1CCN(c2ccc(-c3cc(Cl)c4cn(C(C(=O)Nc5nccs5)c5ncn6c5C[C@@H](F)C6)nc4c3OC)cc2)CC1` (mixture of isomers) [Example 21, 2-[4-Chloro-6-[4-(4-ethylpiperazin-1-yl)phenyl]-7-methoxyindazol-2-yl]-2-[rac-(6R)-6-fluoro-6,7-dihydro-5H-pyrrolo[1,2-c]imidazol-1-yl]-N-(1,3-thiazol-2-yl)acetamide] showed a pIC50 in assay [1] of 8.52. Same read-out and setting: the value for `COc1c(-c2ccc(C3CCN(C4CC4)CC3)cc2)cc(Cl)c2cn(C(C(=O)Nc3nccs3)c3ncn4c3C[C@@H](F)C4)nc12` (mixture of isomers) [Example 22, 2-[4-Chloro-6-[4-(1-cyclopropylpiperidin-4-yl)phenyl]-7-methoxyindazol-2-yl]-2-[rac-(6R)-6-fluoro-6,7-dihydro-5H-pyrrolo[1,2-c]imidazol-1-yl]-N-(1,3-thiazol-2-yl)acetamide] was 8.30.

Turning to `O=C(Nc1nccs1)C(c1ncn2c1CCC2)n1cc2c(Cl)cc(-c3ccc(N4CCNCC4)cc3)cc2n1` (stereo not drawn) [Example 1, 2-(4-Chloro-6-(4-(piperazin-1-yl)phenyl)-2H-indazol-2-yl)-2-(6,7-dihydro-5H-pyrrolo[1,2-c]imidazol-1-yl)-N-(thiazol-2-yl)acetamide hydrochloride], the pIC50 was 8.15 in assay [2] and 8.52 in assay [1]. Consider `CC(=O)N1CCN(c2ccc(-c3cc(Cl)c4cn(C(C(=O)Nc5nccs5)c5ncn6c5CCC6)nc4c3)cc2)CC1` (stereo not drawn) [Example 2, 2-(6-(4-(4-Acetylpiperazin-1-yl)phenyl)-4-chloro-2H-indazol-2-yl)-2-(6,7-dihydro-5H-pyrrolo[1,2-c]imidazol-1-yl)-N-(thiazol-2-yl)acetamide], for which the pIC50 is 8.30 in assay [2] and 9.40 in assay [1]. `O=C(Nc1nccs1)C(c1ncn2c1CCC2)n1cc2c(Cl)cc(-c3ccc(N4CCNCC4)c(Cl)c3)cc2n1` (stereo not drawn) [Example 3, 2-(4-Chloro-6-(3-chloro-4-(piperazin-1-yl)phenyl)-2H-indazol-2-yl)-2-(6,7-dihydro-5H-pyrrolo[1,2-c]imidazol-1-yl)-N-(thiazol-2-yl)acetamide hydrochloride]: in assay [1], the pIC50 is 8.05.

As for `CCN1CCN(c2ccc(-c3cc(Cl)c4cn(C(C(=O)Nc5nccs5)c5ncn6c5CCC6)nc4c3)cc2Cl)CC1` (stereo not drawn) [Example 4, 2-(4-Chloro-6-(3-chloro-4-(4-ethylpiperazin-1-yl)phenyl)-2H-indazol-2-yl)-2-(6,7-dihydro-5H-pyrrolo[1,2-c]imidazol-1-yl)-N-(thiazol-2-yl)acetamide], the results for the pIC50 in assay [2] and in assay [1] were 7.85 and 7.96, respectively. Regarding `O=C(Nc1nccs1)C(c1ncn2c1C[C@@H](F)C2)n1cc2c(F)cc(-c3ccc(N4CCNCC4)c(Cl)c3)cc2n1` (stereo partly drawn) [Example 6, 2-(6-(3-Chloro-4-(piperazin-1-yl)phenyl)-4-fluoro-2H-indazol-2-yl)-2-((R)-6-fluoro-6,7-dihydro-5H-pyrrolo[1,2-c]imidazol-1-yl)-N-(thiazol-2-yl)acetamide hydrochloride], the pIC50 in assay [1] is 8.52.

`CC(=O)N1CCN(c2ccc(-c3cc(F)c4cn(C(C(=O)Nc5nccs5)c5ncn6c5C[C@@H](F)C6)nc4c3)cc2Cl)CC1` (stereo partly drawn) [Example 7, 2-(6-(4-(4-Acetylpiperazin-1-yl)-3-chlorophenyl)-4-fluoro-2H-indazol-2-yl)-2-((R)-6-fluoro-6,7-dihydro-5H-pyrrolo[1,2-c]imidazol-1-yl)-N-(thiazol-2-yl)acetamide] showed a pIC50 in assay [1] of 9.00. Molecule `CCN1CCN(c2ccc(-c3cc(F)c4cn(C(C(=O)Nc5nccs5)c5ncn6c5C[C@@H](F)C6)nc4c3)cc2Cl)CC1` (stereo partly drawn) [Example 8, 2-(6-(3-Chloro-4-(4-ethylpiperazin-1-yl)phenyl)-4-fluoro-2H-indazol-2-yl)-2-((R)-6-fluoro-6,7-dihydro-5H-pyrrolo[1,2-c]imidazol-1-yl)-N-(thiazol-2-yl)acetamide] gave a negative-log IC50 (pIC50) in assay [1] of 8.30. Take `O=C(Nc1nccs1)C(c1ncn2c1CCC2)n1cc2c(Cl)cc(-c3ccc(N4CCNCC4)cc3)c(Cl)c2n1` (stereo not drawn) [Example 9, 2-(4,7-Dichloro-6-(4-(piperazin-1-yl)phenyl)-2H-indazol-2-yl)-2-(6,7-dihydro-5H-pyrrolo[1,2-c]imidazol-1-yl)-N-(thiazol-2-yl)acetamide hydrochloride]: the pIC50 in assay [1] was 8.70.

On to `CC(=O)N1CCN(c2ccc(-c3cc(Cl)c4cn(C(C(=O)Nc5nccs5)c5ncn6c5CCC6)nc4c3Cl)cc2)CC1` (stereo not drawn) [Example 12, 2-(6-(4-(4-Acetylpiperazin-1-yl)phenyl)-4,7-dichloro-2H-indazol-2-yl)-2-(6,7-dihydro-5H-pyrrolo[1,2-c]imidazol-1-yl)-N-(thiazol-2-yl)acetamide], for which the pIC50 in assay [1] is 9.00. For the molecule `CCN1CCN(c2ccc(-c3cc(Cl)c4cn(C(C(=O)Nc5nccs5)c5ncn6c5CCC6)nc4c3Cl)cc2)CC1` (stereo not drawn) [Example 13, 2-(4,7-Dichloro-6-(4-(4-ethylpiperazin-1-yl)phenyl)-2H-indazol-2-yl)-2-(6,7-dihydro-5H-pyrrolo[1,2-c]imidazol-1-yl)-N-(thiazol-2-yl)acetamide], the pIC50 in assay [2] was 7.96; in assay [1], 9.00. As to `O=C(Nc1nccs1)C(c1ncn2c1CCC2)n1cc2c(Cl)cc(-c3ccc(N4CCNCC4)cc3)c(F)c2n1` (stereo not drawn) [Example 15, 2-(4-Chloro-7-fluoro-6-(4-(piperazin-1-yl)phenyl)-2H-indazol-2-yl)-2-(6,7-dihydro-5H-pyrrolo[1,2-c]imidazol-1-yl)-N-(thiazol-2-yl)acetamide hydrochloride], in assay [1], the pIC50 was 8.70.

With `CCN1CCN(c2ccc(-c3cc(Cl)c4cn(C(C(=O)Nc5nccs5)c5ncn6c5CCC6)nc4c3F)cc2)CC1` (stereo not drawn) [Example 16, 2-(4-Chloro-6-(4-(4-ethylpiperazin-1-yl)phenyl)-7-fluoro-2H-indazol-2-yl)-2-(6,7-dihydro-5H-pyrrolo[1,2-c]imidazol-1-yl)-N-(thiazol-2-yl)acetamide], in assay [1], the pIC50 is 8.70.

Turning to `CN1C(=O)CCc2cc(-c3cc(Cl)c4cn(C(C(=O)Nc5nccs5)c5ncn6c5CCC6)nc4c3F)ccc21` (stereo not drawn) [Example 18, 2-(4-Chloro-7-fluoro-6-(1-methyl-2-oxo-1,2,3,4-tetrahydroquinolin-6-yl)-2H-indazol-2-yl)-2-(6,7-dihydro-5H-pyrrolo[1,2-c]imidazol-1-yl)-N-(thiazol-2-yl)acetamide], in assay [1], the pIC50 is 9.00.

The molecule `CC(C)n1ccc(-c2cc(Cl)c3cn(C(C(=O)Nc4nccs4)c4ncn5c4CCC5)nc3c2F)cc1=O` (stereo not drawn) [Example 23, 2-(4-Chloro-7-fluoro-6-(1-isopropyl-2-oxo-1,2-dihydropyridin-4-yl)-2H-indazol-2-yl)-2-(6,7-dihydro-5H-pyrrolo[1,2-c]imidazol-1-yl)-N-(thiazol-2-yl)acetamide] gave a pIC50 in assay [1] of 9.00.
